This is an account of results in paper PMC6723352, “Exploring Structure-Activity Relationship in Tacrine-Squaramide Derivatives as Potent Cholinesterase Inhibitors” (Biomolecules, 2019).

Series [1] deals with T1, human AChE (hAChE), recombinant acetylcholinesterase (Homo sapiens, UniProt P22303).
T1 construct: made in house
Description: hAChE inhibition, modified Ellman's method. The series is classed as biochemical. The note with it: for SI (selectivity index for hAChE): ratio IC50(hBChE)/IC50(hAChE). As to the method:
Three series of tacrine-squaramide homodimers were tested for their inhibitory potential against human AChE (hAChE) and human BChE (hBChE) enzymes using modified spectrophotometric method of Ellman et al.. THA, 6-Cl-THA and 7-MEOTA were used as reference compounds. […].
(§1) Human plasmatic butyrylcholinesterase (BChE; EC 3.1.1.8) and recombinant acetylcholinesterase (AChE; 3.1.1.7) were prepared at the Department of Toxicology and Military Pharmacy. 5,5′-dithiobis(2-nitrobenzoic acid) (Ellman’s reagent, DTNB), phosphate buffer (PB, pH 7.4), acetylthiocholine (ATC) and butyrylthiocholine (BTC), were purchased from Sigma-Aldrich, Prague, Czech Republic. For measuring purposes – polystyrene Nunc 96-well microplates with flat bottom shape (ThermoFisher Scientific, USA) were utilized.
(§2) All the assays were carried out in 0.1 M KH2PO4/K2HPO4 buffer, pH 7.4. Enzyme solutions were prepared at 2.0 units/mL in 2 mL aliquots. The assay medium (100 µL) consisted of 40 µL of 0.1 M phosphate buffer (pH 7.4), 20 µL of 0.01 M DTNB, 10 µL of the enzyme, and 20 µL of 0.01 M substrate (ATC/BTC iodide solution).
(§3) Tested compounds were preincubated for 5 min. The reaction was started by immediate addition of 20 µL of the substrate. The activity was determined by measuring the increase in absorbance at 412 for AChE/BChE at 37 °C at 2 min intervals - using a Multi-mode microplate reader Synergy 2 (Winooski, VT, USA). Each concentration was assayed in triplicate. Software GraphPad Prizm 5 (San Diego, CA, USA) was used for the statistical data evaluation.
A general note: Ellman's reagent forms a yellow product with free thiols.

The next series in a line: in vitro. The note with it: human. As to the method: The human origin cell line HepG2 (ATCC, Mannassas, VA, USA) isolated from liver hepatocellular carcinoma was used to evaluate cytotoxicity of tested compounds. The cells were cultivated in Dublecco’s modified Eagle’s medium (DMEM; Biosera, Nuaille, France) supplemented with 10% fetal bovine serum (Biosera) and 1% penicillin-streptomycin antibiotic solution (Sigma-Aldrich, St. Louis, MO, USA), incubated at 37 °C in a CO2 incubator (Binder CO2 incubator BC 160, Tuttlingen, Germany) and routinely passaged by trypsinization at 75–85% confluence.
The final concentration of DMSO was less than 0.25% per well.
After 24-h incubation, the medium containing serially diluted substances was aspirated from each well and replaced by 100 µL of fresh medium containing MTT (0.5 mg/mL). Plates were subsequently incubated at 37 °C in CO2 incubator for 45 min. The medium containing MTT was then aspirated and formazan dissolved in 100 μL of DMSO. The optical density of each well was measured using Synergy 2 Multi-Mode Microplate Reader (BioTek Instruments, Inc., Winooski, VT, USA) at 570 nm. The cell viability was expressed as the percentage of untreated control. Each experiment was performed in triplicate and repeated three independent times.
The IC50 values were expressed as a mean ± standard error of the mean (SEM).

The target of series [2] is human BChE (hBChE), human plasmatic butyrylcholinesterase (Homo sapiens, UniProt P06276). Description: hBChE inhibition, modified Ellman's method. It is filed as biochemical. The note with it: mean of at least three experiments; read-out: IC50 hBChE. As to the method: Three series of tacrine-squaramide homodimers were tested for their inhibitory potential against human AChE (hAChE) and human BChE (hBChE) enzymes using modified spectrophotometric method of Ellman et al.. THA, 6-Cl-THA and 7-MEOTA were used as reference compounds.
human BChE (hBChE), human plasmatic butyrylcholinesterase, sequence (P06276 29-602): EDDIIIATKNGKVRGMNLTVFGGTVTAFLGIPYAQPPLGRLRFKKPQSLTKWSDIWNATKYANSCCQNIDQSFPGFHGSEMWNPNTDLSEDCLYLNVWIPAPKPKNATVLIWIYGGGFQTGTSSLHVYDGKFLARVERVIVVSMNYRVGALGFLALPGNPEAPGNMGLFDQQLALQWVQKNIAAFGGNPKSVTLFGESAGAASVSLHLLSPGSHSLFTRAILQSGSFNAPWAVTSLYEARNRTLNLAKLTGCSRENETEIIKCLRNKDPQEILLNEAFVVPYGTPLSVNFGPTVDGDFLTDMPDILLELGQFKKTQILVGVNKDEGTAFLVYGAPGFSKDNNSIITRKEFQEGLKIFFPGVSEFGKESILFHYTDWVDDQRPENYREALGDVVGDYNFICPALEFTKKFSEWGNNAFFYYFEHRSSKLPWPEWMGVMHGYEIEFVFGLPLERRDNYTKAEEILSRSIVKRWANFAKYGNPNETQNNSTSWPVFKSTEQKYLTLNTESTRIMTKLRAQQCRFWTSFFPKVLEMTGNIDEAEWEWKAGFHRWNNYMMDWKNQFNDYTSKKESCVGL
as §1, §2, §3

The conditions of series [3]: for Pe: PAMPA, PBS pH 7.4; for CNS (+/−) predicted BBB permeation: class from Pe. An excerpt:
An important feature for drugs targeting the brain is their ability to cross the BBB. The parallel artificial membrane permeability assay (PAMPA) is a high-throughput screening tool applicable for prediction of passive transport across BBB [57]. […] These include mainly (i) the different composition of the human phospholipid bilayer may cause deviation in predicted permeability, (ii) omitting the absorption of compounds that are actively transported by influx transporters and pumped-out by various efflux mechanisms with the glycoprotein P at the forefront or (iii) transport through the paracellular route which is mostly exploited by small […] molecules. Even considering these drawbacks, PAMPA-BBB is conceived as very simple but powerful tool for BBB prediction.
PAMPA (the parallel artificial membrane permeability assay) is a high-throughput screening tool applicable for prediction of the passive transport of potential drugs across the blood-brain barrier (BBB). In this study, it has been used as a non-cell-based in vitro assay carried out in a coated 96-well membrane filter. The filter membrane of the donor plate was coated with PBL (Polar Brain Lipid, Avanti, USA) in dodecane (4 µl of 20 mg/mL PBL in dodecane) and the acceptor well was filled with 300 µl of phosphate buffer saline, (PBS pH 7.4; VA). The tested compounds were dissolved first in DMSO and then diluted with PBS pH 7.4 to reach the final concentrations 50–500 µM in the donor well. […] In principle, test compound diffuse from the donor well through the polar brain lipid membrane (area = 0.28 cm^2) to the acceptor well. The concentration of the tested compound in both donor and the acceptor wells were assessed after 3, 4, 5 and 6 h of incubation in quadruplicate using the UV plate reader Synergy HT (Biotek, USA) at the maximum absorption wavelength of each compound (n = 3). Besides that, the solution of theoretical compound concentration, simulating the equilibrium state, established if the membrane was ideally permeable was prepared and assessed as well.

pIC50: −log10 of the molar value.

T1 sequence (P22303 32-614): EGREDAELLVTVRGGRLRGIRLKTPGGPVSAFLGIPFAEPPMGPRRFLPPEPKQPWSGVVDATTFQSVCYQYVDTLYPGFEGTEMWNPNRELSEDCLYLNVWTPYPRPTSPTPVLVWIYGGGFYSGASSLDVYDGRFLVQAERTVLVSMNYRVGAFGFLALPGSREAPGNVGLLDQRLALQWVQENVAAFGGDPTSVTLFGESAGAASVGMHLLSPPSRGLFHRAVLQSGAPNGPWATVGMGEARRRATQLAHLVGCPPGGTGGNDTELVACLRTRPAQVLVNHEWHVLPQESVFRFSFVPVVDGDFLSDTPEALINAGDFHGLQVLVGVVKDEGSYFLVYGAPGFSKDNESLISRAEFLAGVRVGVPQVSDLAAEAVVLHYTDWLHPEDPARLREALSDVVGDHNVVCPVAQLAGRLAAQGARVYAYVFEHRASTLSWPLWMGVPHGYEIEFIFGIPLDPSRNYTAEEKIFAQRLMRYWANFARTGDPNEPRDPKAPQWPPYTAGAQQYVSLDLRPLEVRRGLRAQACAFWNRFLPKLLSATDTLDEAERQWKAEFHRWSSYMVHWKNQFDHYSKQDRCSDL

In general, pIC50 refers to the negative decadic logarithm of the IC50, by convention in mol/L. What is called IC50 is the point on the concentration scale where inhibition reaches its midpoint. For the molecule `O=c1c(NCCCCCNc2c3c(nc4ccccc24)CCCC3)c(NCCCCCNc2c3c(nc4ccccc24)CCCC3)c1=O` [Compound 3d, Bis({5-[(1,2,3,4-tetrahydroacridin-9-yl)amino]pentyl}amino)cyclobut-3-ene-1,2-dione], in series [1], the pIC50 is 8.09 and the “SI (selectivity index for hAChE)” value is 8.5. Also, in “in vitro”, the IC50 at 24 h is 69 µM. The pIC50 in series [2] is 7.16.
The matching figures for `COc1ccc2nc3c(c(NCCCCCCNc4c(NCCCCCCNc5c6c(nc7ccc(OC)cc57)CCCC6)c(=O)c4=O)c2c1)CCCC3` [Compound 5e, Bis({6-[(7-methoxy-1,2,3,4-tetrahydroacridin-9-yl)amino]hexyl}amino)cyclobut-3-ene-1,2-dione]: 6.82, 7.3, 26 µM and 5.96.
As for `CC(C)Cc1ccc(C(C)C(=O)O)cc1` (stereo not drawn) [ibuprofen, reference compound], in series [3], the Pe amounted to 12 ×10⁻⁶ cm/s.
For `O=c1c(NCCCNc2c3c(nc4ccccc24)CCCC3)c(NCCCNc2c3c(nc4ccccc24)CCCC3)c1=O` [Compound 3b, Bis({3-[(1,2,3,4-tetrahydroacridin-9-yl)amino]propyl}amino)cyclobut-3-ene-1,2-dione], in series [1], the negative logarithm of the IC50 (pIC50) was 8.08 and the “SI (selectivity index for hAChE)” value was 6.5. Further, in “in vitro”, the half-inhibitory concentration (IC50) at 24 h was above 32 µM. Further, in series [2], the negative logarithm of the IC50 (pIC50) is 7.26.
`O=c1c(NCCCCCCCNc2c3c(nc4cc(Cl)ccc24)CCCC3)c(NCCCCCCCNc2c3c(nc4cc(Cl)ccc24)CCCC3)c1=O` [Compound 4f, Bis({7-[(6-chloro-1,2,3,4-tetrahydroacridin-9-yl)amino]heptyl}amino)cyclobut-3-ene-1,2-dione]: in series [1], the negative-log IC50 (pIC50) is 7.80 and the “SI (selectivity index for hAChE)” value came out at 28. Moreover, in “in vitro”, the IC50 at 24 h is above 64 µM. The pIC50 in series [2] was 6.35.
Take `O=c1c(NCCCCNc2c3c(nc4cc(Cl)ccc24)CCCC3)c(NCCCCNc2c3c(nc4cc(Cl)ccc24)CCCC3)c1=O` [Compound 4c, Bis({4-[(6-chloro-1,2,3,4-tetrahydroacridin-9-yl)amino]butyl}amino)cyclobut-3-ene-1,2-dione]: the negative-log IC50 (pIC50) in series [1] was 8.34; in series [2] it was 6.77. For the same molecule, the “SI (selectivity index for hAChE)” value in series [1] is reported as 37. Further, in “in vitro”, the 50% inhibitory concentration (IC50) at 24 h was above 64 µM.
For `Nc1c2c(nc3cc(Cl)ccc13)CCCC2` [Compound 6-Cl-THA, 6-chlorotacrine, reference compound], the IC50 at 24 h in “in vitro” was determined as 43 µM.
`COc1ccc2nc3c(c(NCCCNc4c(NCCCNc5c6c(nc7ccc(OC)cc57)CCCC6)c(=O)c4=O)c2c1)CCCC3` [Compound 5b, Bis({3-[(7-methoxy-1,2,3,4-tetrahydroacridin-9-yl)amino]propyl}amino)cyclobut-3-ene-1,2-dione]: in series [1], the negative logarithm of the IC50 (pIC50) is 5.96 and the “SI (selectivity index for hAChE)” value was 8.1. Also, the IC50 at 24 h in the series “in vitro” is above 64 µM. In series [2], the pIC50 is 5.05.
The corresponding values for `O=c1c(NCCCCNc2c3c(nc4ccccc24)CCCC3)c(NCCCCNc2c3c(nc4ccccc24)CCCC3)c1=O` [Compound 3c, Bis({4-[(1,2,3,4-tetrahydroacridin-9-yl)amino]butyl}amino)cyclobut-3-ene-1,2-dione] are 8.26, 14, 150 µM and 7.12.
Regarding `COc1ccc2nc3c(c(N)c2c1)CCCC3` [Compound 7-MEOTA, 7-methoxytacrine, reference compound], the 50% inhibitory concentration (IC50) at 24 h in “in vitro” was found to be 44 µM.
In the case of `COc1ccc2nc3c(c(NCCCCCCCCNc4c(NCCCCCCCCNc5c6c(nc7ccc(OC)cc57)CCCC6)c(=O)c4=O)c2c1)CCCC3` [Compound 5g, Bis({8-[(7-methoxy-1,2,3,4-tetrahydroacridin-9-yl)amino]octyl}amino)cyclobut-3-ene-1,2-dione], in series [1], the pIC50 was 6.31 and the “SI (selectivity index for hAChE)” value is 5.9. Moreover, the IC50 at 24 h in “in vitro” amounted to 3.5 µM. The negative-log IC50 (pIC50) in series [2] was 5.54.
For `O=c1c(NCCCCCCCCNc2c3c(nc4cc(Cl)ccc24)CCCC3)c(NCCCCCCCCNc2c3c(nc4cc(Cl)ccc24)CCCC3)c1=O` [Compound 4g, Bis({8-[(6-chloro-1,2,3,4-tetrahydroacridin-9-yl)amino]octyl}amino)cyclobut-3-ene-1,2-dione], the pIC50 is 8.00 in series [1] and below 4.00 in series [2]. Besides, the “SI (selectivity index for hAChE)” value in series [1] is listed as “˃10,000”. For the same molecule, the IC50 at 24 h in “in vitro” is above 64 µM.
Consider `Nc1c2c(nc3ccccc13)CCCC2` [THA, 9-amino-1,2,3,4-tetrahydroacridine, reference compound], for which, in series [3], the Pe was found to be 6 ×10⁻⁶ cm/s and the “CNS (+/−) predicted BBB permeation” value is listed as “CNS + (CNS +: high BBB permeation predicted with Pe (10^−6 cm·s^−1) > 4.0)”.
The corresponding values for `NS(=O)(=O)c1cc2c(cc1Cl)N=CNS2(=O)=O` [chlorothiazide, reference compound] are 0.3 ×10⁻⁶ cm/s and “CNS − (CNS −: low BBB permeation predicted with Pe (10^−6 cm·s^−1) < 2.0)”.
Take `COc1ccc2c3c1O[C@H]1C[C@@H](O)C=C[C@@]31CCN(C)C2` [Galantamine, galantamine, reference compound]: in “in vitro”, the IC50 at 24 h was 4200 µM.
For the molecule `COc1ccc2nc3c(c(NCCCCNc4c(NCCCCNc5c6c(nc7ccc(OC)cc57)CCCC6)c(=O)c4=O)c2c1)CCCC3` [Compound 5c, Bis({4-[(7-methoxy-1,2,3,4-tetrahydroacridin-9-yl)amino]butyl}amino)cyclobut-3-ene-1,2-dione], the pIC50 in series [1] was 5.35; in series [2], 5.33. In addition, the half-maximal inhibitory concentration (IC50) at 24 h in “in vitro” is 190 µM.
With `CCN(C)C(=O)Oc1cccc([C@H](C)N(C)C)c1` [Rivastigmine, rivastigmine, reference compound], in “in vitro”, the IC50 at 24 h is 3400 µM.
For `O=c1c(NCCCCCNc2c3c(nc4cc(Cl)ccc24)CCCC3)c(NCCCCCNc2c3c(nc4cc(Cl)ccc24)CCCC3)c1=O` [Compound 4d, Bis({5-[(6-chloro-1,2,3,4-tetrahydroacridin-9-yl)amino]pentyl}amino)cyclobut-3-ene-1,2-dione], in series [1], the pIC50 is 8.09 and the “SI (selectivity index for hAChE)” value is on record as 38. For the same molecule, in the series “in vitro”, the half-inhibitory concentration (IC50) at 24 h is above 64 µM. Also, in series [2], the pIC50 was 6.51.
For `CNC(=C[N+](=O)[O-])NCCSCc1ccc(CN(C)C)o1` [ranitidine, reference compound], in series [3], the Pe was found to be 0 ×10⁻⁶ cm/s and the “CNS (+/−) predicted BBB permeation” value is “CNS − (CNS −: low BBB permeation predicted with Pe (10^−6 cm·s^−1) < 2.0)”.
